Patent US11602530B2, “CRM1 inhibitors for treating epilepsy” (Biogen MA Inc., priority 2016, dated 2023)

Tests used:
male NMRI mice = assay: Pilocarpine model of temporal lobe epilepsy (TLE), spontaneous recurrent seizures; type: in vivo; conditions: for reduction in seizure activity: 7.5 mg/kg per os every other day for two weeks
Description: FIG. 1 is a description of a pilocarpine model of temporal lobe epilepsy (TLE) in male NMRI mice. The treatment phase was compound E-1 in Table I administered at 7.5 mg/kg per os or vehicle, every other day for the two week treatment period. Vehicle was 0.6% plasdone PVP K29/32 and 0.6% poloxamer Pluronic F68 in water.
A well-established pilocarpine model of temporal lobe epilepsy (TLE) that has been recently optimized for mice can be used (Mazzuferi et al., Exp. Neurol. 238:156-67). Status epilepticus (SE) can be initiated with a single 300 mg/kg intraperitoneal (i.p.) injection of pilocarpine in male NMRI mice, 30 min after N-methylscopolamine bromide administration (1 mg/kg; i.p.). Within 10 to 45 min after pilocarpine treatment, animals display generalized tonic-clonic seizures that progress to continuous convulsive activity, i.e. SE. To limit the duration of SE, mice can be injected with a bolus dose of diazepam (10 mg/kg; i.p.) after 3 h. The mice typically show spontaneous recurrent seizures within few days after SE and continue to display them throughout their lifetime.
A separate cohort of animals (for example, n=40) can then undergo continuous monitoring for spontaneous recurrent seizures during 28 consecutive days beginning 8-10 weeks following pilocarpine induced SE. The seizure monitoring can be performed by simultaneous recording of locomotor activity with a 3D accelerometer and video. This system allows for automated detection of behavioral seizures by analysis of the accelerometry signal. All behavioral seizures can be scored according to the Racine's protocol after detailed review of corresponding video clips by experienced technical personnel. Secondary generalized seizures, a Racine's score of 3-5, will be quantified and used for calculation of total seizure counts. […]

[1] = Body weight of treated mice in the pilocarpine TLE model; type: in vivo; conditions: 7.5 mg/kg per os every other day for two weeks
Description: Following the general procedure described in Example 1 and outlined in FIG. 1, Compound E1 of Table I was administered to mice during the treatment phase at 7.5 mg/kg per os every other day for the two weeks of treatment.

SMILES: CC(C)(C)C(=O)NNC(=O)/C=C\n1cnc(-c2cc(C(F)(F)F)cc(C(F)(F)F)c2)n1 [Compound E-1, (Z)-3-(3-(3,5-bis(trifluoromethyl)phenyl)-1H-1,2,4-triazol-1-yl)-N′-pivaloylacrylohydrazide]
- reduction in seizure occurrence in comparison to vehicle treated mice (male NMRI mice; a significant number of mice, chronic administration (FIG. 4)): 50%
- reduction in seizure activity (male NMRI mice; all treated mice (24 dosed)): ≥ 50%
- reduction in seizure activity (male NMRI mice; six of the treated mice): 100%
- change in body weight of the treated mice [1]: no change
